The target in the test is T1, BiXyl43A (Bacteroides intestinalis, UniProt B3CES2).
T1 construct: gene BACINT_04203; GH43 module without signal peptide; N-terminal 6His tag (pET-46 Ek/LIC), E. coli BL21-CodonPlus(DE3)-RIL; IMAC and size exclusion
T1 sequence (B3CES2 1-325): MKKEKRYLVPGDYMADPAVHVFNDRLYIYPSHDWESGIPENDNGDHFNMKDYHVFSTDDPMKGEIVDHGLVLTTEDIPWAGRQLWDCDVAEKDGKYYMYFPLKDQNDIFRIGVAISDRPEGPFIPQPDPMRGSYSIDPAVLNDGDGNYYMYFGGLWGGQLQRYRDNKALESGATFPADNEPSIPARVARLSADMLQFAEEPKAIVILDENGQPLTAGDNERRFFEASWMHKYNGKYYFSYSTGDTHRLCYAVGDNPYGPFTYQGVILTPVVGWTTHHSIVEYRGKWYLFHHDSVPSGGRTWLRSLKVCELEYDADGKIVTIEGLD
The test can be described thus: HPAEC-PAD of hydrolysis products. To be noted: pH […] sodium phosphate, […] NaCl, […] °C, […] min; […] substrate, […] enzyme. Type of test: biochemical.

As to `OC1OC[C@@H](O[C@@H]2OC[C@@H](O)[C@H](O)[C@H]2O)[C@H](O)[C@H]1O` (some centres unmarked) [X2, xylobiose], the “HPAEC-PAD of hydrolysis products” value is reported as “xylo-oligosaccharides ranging from xylobiose to xylohexaose led to cleavage or hydrolysis to their unit sugar”.
As to `OC1OC[C@@H](O[C@@H]2OC[C@@H](O[C@@H]3OC[C@@H](O)[C@H](O)[C@H]3O)[C@H](O)[C@H]2O)[C@H](O)[C@H]1O` (some centres unmarked) [X3, xylotriose], the “HPAEC-PAD of hydrolysis products” value was “BiXyl43A against xylo-oligosaccharides (xylobiose, X2; xylotriose, X3; xylotetraose, X4”.

For the origin of these results see article PMC5041131, “Bacteroides intestinalis DSM 17393, a member of the human colonic microbiome, upregulates multiple endoxylanases during growth on xylan” (Scientific Reports, 2016).
